In patent publication US7998933B2, “Process for treating the skin comprising applying to the skin at least one composition comprising at least one N-aminoacylamide” (L'Oreal S.A., priority 2000, dated 2011):
Values belong to the compound of their own block, whether it stands above or below them.

Experiments:
[1] = molecular target: T1, human leukocyte elastase (HLE) (Homo sapiens, UniProt P08246); experiment: in vitro anti-elastase activity, substrate Me-OSAAPV-p-NA, spectrophotometry; assay type: biochemical
T1 sequence (P08246 30-267): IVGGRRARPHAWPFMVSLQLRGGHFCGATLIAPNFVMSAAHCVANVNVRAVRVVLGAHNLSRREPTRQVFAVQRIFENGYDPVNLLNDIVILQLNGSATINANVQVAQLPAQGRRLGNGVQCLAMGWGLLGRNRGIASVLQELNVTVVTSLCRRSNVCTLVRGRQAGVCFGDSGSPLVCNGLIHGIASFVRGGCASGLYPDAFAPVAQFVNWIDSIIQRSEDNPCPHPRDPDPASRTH
Procedure: The in vitro anti-elastase activity of compounds according to the invention with respect to human leukocyte elastase (HLE) was determined. […]
The percentage inhibition of the control elastase activity is then determined by spectrophotometry.

[2] = system: surviving human skin treated with human leukocyte elastase (HLE); experiment: ex vivo activity on human skin fragments kept alive in culture for 10 days with HLE, morphometric quantification of elastic fibres; assay type: cell-based; conditions: three donors; 0.5 μg/ml HLE + 5 μl of 0.2% compound in ethanol every two days, 10 days at 37° C.; control 7.4%, HLE alone 5.1%
Procedure: (§1) The ex vivo activity of the compound of Example 2 was evaluated on surviving human skin treated with human leukocyte elastase (HLE).
(§2) Fragments of normal human skin obtained from three different donors are placed in inserts positioned in culture wells. Culture medium supplemented with antibiotics is placed in the bottom of the wells. A passage is carried out by slow diffusion between the two compartments by means of a porous membrane (pore size: 12 μm).
(§3) The culture medium is freshened every three days.
0.5 μg of HLE per ml of culture medium is optionally added to the skin fragments.
5 μl of the test compound, predissolved at a concentration of 0.2% by weight in ethanol, is also added every two days.
The skins are kept alive for 10 days at 37° C.
(§4) The elastic fibres are stained blue with (+)-catechin and morphometrically quantified by computer-assisted image analysis. The percentage of average dermal surface area occupied by the elastic fibres is thus evaluated.

[3] = system: surviving human skin treated with human leukocyte elastase (HLE); experiment: ex vivo activity on fresh sections of human skin treated with HLE for 2 hours, morphometric quantification of elastic fibres; assay type: cell-based; conditions: 10 μg/ml HLE + 0.1% compound, 2 hours at 20° C.
Procedure: as §1
Fresh sections of human skin, obtained from 2 different donors, are treated for 2 hours at 20° C. with 20 μl of buffer solution (pH 7.4) optionally comprising 10 μg/ml of HLE and optionally 0.1% of the test compound, optionally predissolved in ethanol.
as §4

[4] = system: surviving human skin irradiated with UVA (8 J/cm^2); experiment: activity on surviving human skin irradiated with UVA, morphometric analysis of elastic fibres and collagen; assay type: cell-based; conditions: UVA 8 J/cm^2 once + 5 μl of 0.2% compound every two days, 7 days at 37° C.
Procedure: The activity of the compound of Example 2 on surviving human skin irradiated with UVA (8 J/cm^2) was evaluated.
as §2, with “four” for “three”
as §3
5 μl of the test compound, predissolved at a concentration of 0.2% in ethanol, is added to the skin fragments every two days.
The skins are kept alive for 7 days at 37° C.
The skins are irradiated once at 8 J/cm^2 (Vilbert-Lourmat RMX-3W lamp).
as §4

[5] = compound concentration 0.1%, HLE 40 milliunits per ml, 37° C., 60 minutes

% inhibition of the control elastase activity [1, 5]: 20%
SMILES: CC(=O)N(Cc1ccccc1)C(C(=O)NCC(=O)O)C(C)C (centres unmarked) [Compound C, [2-(acetylbenzylamino)-3-methylbutyrylamino]acetic acid]

% inhibition of the control elastase activity [1, 5]: 13%
SMILES: CCOC(=O)CNC(=O)C(C(C)C)N(Cc1ccccc1)C(C)=O (centres unmarked) [Compound D, ethyl [2-(acetylbenzylamino)-3-methylbutyrylamino]acetate]

% inhibition of the control elastase activity [1, 5]: 67%
% inhibition of the control elastase activity ([1]; concentration of compound A 0.01%): 53%
% inhibition of the control elastase activity ([1]; concentration of compound A 0.05%): 50%
% inhibition of the control elastase activity ([1]; concentration of compound A 0.1% (concentration series)): 68%
% inhibition of the control elastase activity ([1]; concentration of compound A 0.2%): 68%
SMILES: CC(=O)N(c1cccc(C(F)(F)F)c1)C(C(=O)NCC(=O)O)C(C)C (centres unmarked) [Example 2, {2-[acetyl (3-trifluoromethylphenyl)amino]-3-methylbutyrylamino}acetic acid]
% of surface area occupied by the elastic fibres [2]: 7.1%
inhibition of the elastase activity (in words) [1]: strong inhibition of the elastase activity, even in a small amount
% of surface area occupied by the elastic fibres ([3]; Skin 1, control 12.7%, HLE alone 4.85%): 13.95%
% of surface area occupied by the elastic fibres ([3]; Skin 2, control 15.25%, HLE alone 6.85%): 11.85%
Morphometric analysis of the elastic fibres (superficial dermis) ([4]; untreated 6.75%, UVA alone 3.9%): 6.8%
Morphometric analysis of the collagen (superficial dermis) ([4]; untreated 87%, UVA alone 81%): 92%

SMILES: CCOC(=O)CNC(=O)C(C(C)C)N(Cc1ccccc1)C(=O)CP(=O)(OCC)OCC (centres unmarked) [Compound B, ethyl [2-{benzyl((diethoxyphosphoryl)acetyl]amino}-3-methylbutyrylamino)acetate]
% inhibition of the control elastase activity [1, 5]: 17%
